How the values were obtained:
Assay type in all cases: in vivo
[1] = tested on: corn (Zea mays); assay: Test B preemergence
Method in brief: (§1)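 Greenhouse test: chemicals are formulated in a surfactant-containing non-phytotoxic solvent and applied either preemergence to planted seeds or postemergence to plants 2 to 18 cm tall. Response is rated visually versus controls after 13 to 15 days, 0 meaning no effect and 100 complete control.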

[2] = tested on: crabgrass (Digitaria sanguinalis); assay: Test B preemergence
Method in brief: as §1

[3] = tested on: cocklebur (Xanthium strumarium); assay: Test B preemergence
Method in brief: as §1

[4] = tested on: velvetleaf (Abutilon theophrasti); assay: Test B preemergence
Method in brief: as §1

[5] = tested on: barnyardgrass (Echinochloa crus-galli); assay: Test B preemergence
Method in brief: as §1

[6] = tested on: giant foxtail (Setaria faberii); assay: Test B preemergence
Method in brief: as §1

[7] = tested on: rice (Oryza saliva); assay: Test B preemergence
Method in brief: as §1

[8] = tested on: lambsquarters (Chenopodium album); assay: Test B preemergence
Method in brief: as §1

[9] = tested on: morning glory (Ipomoea hederacea); assay: Test B preemergence
Method in brief: as §1

[10] = tested on: Surinam grass (Brachiaria decumbens); assay: Test B preemergence
Method in brief: as §1

[11] = tested on: pigweed (Amaranthus retroflexus); assay: Test B preemergence
Method in brief: as §1

[12] = tested on: corn (Zea mays); assay: Test B postemergence; settings: 13 to 15 days
Method in brief: as §1

[13] = tested on: crabgrass (Digitaria sanguinalis); assay: Test B postemergence; settings: 13 to 15 days
Method in brief: as §1

[14] = tested on: cocklebur (Xanthium strumarium); assay: Test B postemergence; settings: 13 to 15 days
Method in brief: as §1

[15] = tested on: velvetleaf (Abutilon theophrasti); assay: Test B postemergence; settings: 13 to 15 days
Method in brief: as §1

[16] = tested on: barnyardgrass (Echinochloa crus-galli); assay: Test B postemergence; settings: 13 to 15 days
Method in brief: as §1

[17] = tested on: wheat (Triticum aestivum); assay: Test B postemergence; settings: 13 to 15 days
Method in brief: as §1

[18] = tested on: blackgrass (Alopecurus myosuroides); assay: Test B postemergence; settings: 13 to 15 days
Method in brief: as §1

[19] = tested on: giant foxtail (Setaria faberii); assay: Test B postemergence; settings: 13 to 15 days
Method in brief: as §1

[20] = tested on: lambsquarters (Chenopodium album); assay: Test B postemergence; settings: 13 to 15 days
Method in brief: as §1

[21] = tested on: morning glory (Ipomoea hederacea); assay: Test B postemergence; settings: 13 to 15 days
Method in brief: as §1

[22] = tested on: Surinam grass (Brachiaria decumbens); assay: Test B postemergence; settings: 13 to 15 days
Method in brief: as §1

[23] = tested on: wild oat (Avena fatua); assay: Test B postemergence; settings: 13 to 15 days
Method in brief: as §1

[24] = tested on: pigweed (Amaranthus retroflexus); assay: Test B postemergence; settings: 13 to 15 days
Method in brief: as §1

[25] = tested on: Nightshade; assay: Test C preemergence; settings: visual evaluation after 12 to 14 days
[26] = tested on: Sunflower; assay: Test C preemergence; settings: scale 0 to 100, 0 no effect, 100 complete control
[27] = Preemergence, Rate 500 g/ha, scale 0 to 100, 0 no effect, 100 complete control
[28] = preemergence, Rate 125 g/ha, scale of 0 to 100 where 0 is no effect and 100 is complete control, 13 to 15 days
[29] = Rate 125 g/ha, scale 0 (no effect) to 100 (complete control)
[30] = Rate 500 g/ha, scale 0 to 100, 0 is no effect, 100 is complete control

## CCC(CC)c1ccn(C2CCN(c3cccc(OC)c3)C2=O)n1 (stereo not shown) [Compound 96]
[1]; [27]
  Plant response rating, Corn: 20
[1]; [28]
  Plant response rating, Corn: 0
[2]; [27]
  Plant response rating, Crabgrass: 100
[2]; [28]
  Plant response rating, Crabgrass: 100
[3]; [27]
  Plant response rating, Cocklebur: 30
[3]; [28]
  Plant response rating, Cocklebur: 20
[4]; [27]
  Plant response rating, Velvetleaf: 50
[4]; [28]
  Plant response rating, Velvetleaf: 0
[5]; [27]
  Plant response rating, Barnyardgrass: 100
[5]; [28]
  Plant response rating, Barnyardgrass: 100
[6]; [27]
  Plant response rating, Foxtail, Giant: 100
[6]; [28]
  Plant response rating, Foxtail, Giant: 100
[7]; [27]
  Plant response rating, Rice: 100
[7]; [28]
  Plant response rating, Rice: 70
[8]; [27]
  Plant response rating, Lambsquarters: 100
[8]; [28]
  Plant response rating, Lambsquarters: 100
[9]; [27]
  Plant response rating, Morningglory: 80
[9]; [28]
  Plant response rating, Morningglory: 0
[10]; [27]
  Plant response rating, Surinam grass: 80
[10]; [28]
  Plant response rating, Surinam grass: 50
[11]; [27]
  Plant response rating, Pigweed: 100
[11]; [28]
  Plant response rating, Pigweed: 100
[12]; [29]
  Plant response rating, Corn: 0
[12]; [30]
  Plant response rating, Corn: 0
[13]; [29]
  Plant response rating, Crabgrass: 20
[13]; [30]
  Plant response rating, Crabgrass: 70
[14]; [29]
  Plant response rating, Cocklebur: 10
[14]; [30]
  Plant response rating, Cocklebur: 20
[15]; [30]
  Plant response rating, Velvetleaf: 10
[16]; [29]
  Plant response rating, Barnyardgrass: 0
[16]; [30]
  Plant response rating, Barnyardgrass: 90
[17]; [30]
  Plant response rating, Wheat: 0
[18]; [29]
  Plant response rating, Blackgrass: 0
[18]; [30]
  Plant response rating, Blackgrass: 0
[19]; [29]
  Plant response rating, Foxtail, Giant: 0
[19]; [30]
  Plant response rating, Foxtail, Giant: 40
[20]; [30]
  Plant response rating, Lambsquarters: 90
[21]; [30]
  Plant response rating, Morningglory: 50
[22]; [29]
  Plant response rating, Surinam grass: 0
[22]; [30]
  Plant response rating, Surinam grass: 0
[23]; [30]
  Plant response rating, Wild Oat: 0
[24]; [30]
  Plant response rating, Pigweed: 90
[25]; Rate 500 g/ha
  Plant response rating (0 to 100), Nightshade: 80
[26]; Rate 250 g/ha
  Plant response rating, Sunflower: 50

## O=C1C(n2ccc(C3CCCCC3)n2)OCN1c1cccc(C(F)(F)F)c1 (stereo not shown) [Compound 51]
[1]; [27]
  Plant response rating, Corn: 0
[1]; [28]
  Plant response rating, Corn: 0
[2]; [27]
  Plant response rating, Crabgrass: 100
[2]; [28]
  Plant response rating, Crabgrass: 100
[3]; [27]
  Plant response rating, Cocklebur: 0
[3]; [28]
  Plant response rating, Cocklebur: 0
[4]; [27]
  Plant response rating, Velvetleaf: 0
[4]; [28]
  Plant response rating, Velvetleaf: 0
[5]; [27]
  Plant response rating, Barnyardgrass: 80
[5]; [28]
  Plant response rating, Barnyardgrass: 80
[6]; [27]
  Plant response rating, Foxtail, Giant: 50
[6]; [28]
  Plant response rating, Foxtail, Giant: 0
[7]; [27]
  Plant response rating, Rice: 0
[7]; [28]
  Plant response rating, Rice: 0
[8]; [27]
  Plant response rating, Lambsquarters: 100
[8]; [28]
  Plant response rating, Lambsquarters: 100
[9]; [27]
  Plant response rating, Morningglory: 0
[9]; [28]
  Plant response rating, Morningglory: 0
[10]; [27]
  Plant response rating, Surinam grass: 20
[10]; [28]
  Plant response rating, Surinam grass: 0
[11]; [27]
  Plant response rating, Pigweed: 100
[11]; [28]
  Plant response rating, Pigweed: 0
[12]; [29]
  Plant response rating, Corn: 0
[12]; [30]
  Plant response rating, Corn: 0
[13]; [29]
  Plant response rating, Crabgrass: 0
[13]; [30]
  Plant response rating, Crabgrass: 20
[14]; [29]
  Plant response rating, Cocklebur: 0
[14]; [30]
  Plant response rating, Cocklebur: 0
[15]; [29]
  Plant response rating, Velvetleaf: 0
[15]; [30]
  Plant response rating, Velvetleaf: 0
[16]; [29]
  Plant response rating, Barnyardgrass: 0
[16]; [30]
  Plant response rating, Barnyardgrass: 0
[17]; [29]
  Plant response rating, Wheat: 0
[17]; [30]
  Plant response rating, Wheat: 0
[18]; [29]
  Plant response rating, Blackgrass: 0
[18]; [30]
  Plant response rating, Blackgrass: 0
[19]; [29]
  Plant response rating, Foxtail, Giant: 0
[19]; [30]
  Plant response rating, Foxtail, Giant: 0
[20]; [29]
  Plant response rating, Lambsquarters: 80
[20]; [30]
  Plant response rating, Lambsquarters: 90
[21]; [29]
  Plant response rating, Morningglory: 0
[21]; [30]
  Plant response rating, Morningglory: 0
[22]; [29]
  Plant response rating, Surinam grass: 0
[22]; [30]
  Plant response rating, Surinam grass: 0
[23]; [29]
  Plant response rating, Wild Oat: 0
[23]; [30]
  Plant response rating, Wild Oat: 0
[24]; [29]
  Plant response rating, Pigweed: 0
[24]; [30]
  Plant response rating, Pigweed: 80
[25]; Rate 250 g/ha
  Plant response rating (0 to 100), Nightshade: 0
[26]; Rate 125 g/ha
  Plant response rating, Sunflower: 0
